One assay concerns LNCaP FGC cells. Nature of the assay: Inhibition of proliferation of LNCaP cells (WST-8). Conditions: Homo sapiens, LNCaP, 96 h, read-out: IC50 for inhibiting the proliferation of LNCaP cells, LNCaP FGC cells, 96 hours, WST-8 absorbance at 450 nm. The format is cell-based. On the procedure:
The cells were cultured in a cell culture incubator with 5% CO2 at 37° C. overnight. […] On the sixth day, 96 well plates were taken out, and 20 μL of WST-8 (Beytime, C0040) reagent was added to each well.
(In general: Formazan colour is commonly taken as a measure of viable cells.)
As to `CC1(C)C(=O)N(c2ccc(C#N)c(C(F)(F)F)c2)C(=S)N1c1ccc(C(=O)N2CCC(CN3CCC4(CCc5cc6c(cc5O4)CN(C4CCC(=O)NC4=O)C6=O)CC3)CC2)c(F)c1` (stereo not shown) [Compound 85], the IC50 stood at 5.34 µM.

A further assay has as its system VCaP cells. Nature of the assay: Inhibition of proliferation of VCaP cells (WST-8). Type of assay: cell-based. Conditions: Homo sapiens, VCaP, 168 h, read-out: IC50 for inhibiting the proliferation of VCaP cells. On the procedure: The inhibitory activity of the compounds disclosed in the present disclosure on the proliferation of VCaP cells
On the first day of the experiment, […] were inoculated in 96 well plates at a density of 15000 cells per well using DMEM medium containing 10% fetal bovine serum, with 100 μL of cell suspension per well. The cells were cultured in a cell culture incubator with 5% CO2 at 37° C. overnight. […] On the ninth day, 96 well plates were taken out, and 20 μL of WST-8 (Beytime, C0040) reagent was added to each well.
Take `CC1(C)C(=O)N(c2ccc(C#N)c(C(F)(F)F)c2)C(=S)N1c1ccc(C(=O)N2CC(CN3CCC4(CCc5cc6c(cc5O4)C(=O)N(C4CCC(=O)NC4=O)C6=O)CC3)C2)c(F)c1` (stereo not shown) [Compound 84]: the IC50 amounted to 4.57 µM. On the same count and under the same terms, in the case of `CC1(C)C(=O)N(c2ccc(C#N)c(C(F)(F)F)c2)C(=S)N1c1ccc(C(=O)N2CCC(CN3CCC4(CCc5cc6c(cc5O4)CN(C4CCC(=O)NC4=O)C6=O)CC3)CC2)c(F)c1` (stereo not shown) [Compound 85] it was 7.4 µM. The same measure, in the same setting: then `CC1(C)C(=O)N(c2ccc(C#N)c(C(F)(F)F)c2)C(=S)N1c1ccc(C(=O)N2CC3(CC(N4CCC5(CC4)COc4cc6c(cc45)C(=O)N(C4CCC(=O)NC4=O)C6=O)C3)C2)c(F)c1` (stereo not shown) [Compound 92], with 4.09 µM; and `CC1(C)C(=O)N(c2ccc(C#N)c(C(F)(F)F)c2)C(=S)N1c1ccc(C(=O)N2CCC(F)(CN3CCC4(CCc5cc6c(cc5O4)C(=O)N(C4CCC(=O)NC4=O)C6=O)CC3)CC2)c(F)c1` (stereo not shown) [Compound 97], with 1.3 µM; and `CC1(C)C(=O)N(c2ccc(C#N)c(C(F)(F)F)c2)C(=S)N1c1ccc(C(=O)N2CCC(CN3CCC4(CCc5cc6c(cc5O4)C(=O)N(C4CCC(=O)NC4=O)C6=O)CC3)CC2)c(F)c1` (stereo not shown) [Compound 99], with 3.8 µM. Regarding `CC1(C)C(=O)N(c2ccc(C#N)c(C(F)(F)F)c2)C(=S)N1c1ccc(C(=O)N2CCC(N3CCC4(CCc5cc6c(cc5O4)C(=O)N(C4CCC(=O)NC4=O)C6=O)CC3)CC2)c(F)c1` (stereo not shown) [Compound 101], the IC50 came out at 3.75 µM. Same read-out and setting: in the case of `CC1(C)C(=O)N(c2ccc(C#N)c(C(F)(F)F)c2)C(=S)N1c1ccc(C(=O)N2CC(N3CCC4(CCc5cc6c(cc5O4)C(=O)N(C4CCC(=O)NC4=O)C6=O)CC3)C2)c(F)c1` (stereo not shown) [Compound 102] it was 3.88 µM; in that of `CC1(C)C(=O)N(c2ccc(C#N)c(C(F)(F)F)c2)C(=S)N1c1ccc(C(=O)N2CC(N3CCC4(CCc5cc6c(cc5O4)C(=O)N(C4CCC(=O)NC4=O)C6)CC3)C2)c(F)c1` (stereo not shown) [Compound 105], 2.96 µM.

The same assay, now with this note: Homo sapiens; VCaP cells, 168 hours, WST-8 absorbance at 450 nm; read-out: IC50 for inhibiting the proliferation of VCaP cells.
Consider `CC1(C)C(=O)N(c2ccc(C#N)c(C(F)(F)F)c2)C(=S)N1c1ccc(C(=O)N2CCC3(CC2)CC(N2CCC4(CCc5cc6c(cc5O4)C(=O)N(C4CCC(=O)NC4=O)C6=O)CC2)C3)c(F)c1` (stereo not shown) [Compound 103], for which the IC50 amounted to 2.74 µM.
